Results on three compounds are retold here after publication PMC8795149, “Characterization of a novel non-steroidal glucocorticoid receptor agonist optimized for topical treatment” (Scientific Reports, 2022).

The test system of data set [1] is GILZ mRNA. Kind of data set: Human skin explant, GILZ gene expression. In kind it is cell-based. Particulars: human skin explants, topical, 24 h; for GILZ Relative ED50: weighted geometric mean ± SD. Here is the method: (§1) NativeSkin models (NS002) were purchased from Genoskin, France. Human skin samples from abdominal reduction surgery were obtained by Genoskin from donors upon written informed consent. Full ethical approval for the study protocol was obtained from the French ethical research committee (Comité de Protection des Personnes), and authorization was given by the French Ministry of Research. The study was conducted according to the Declaration of Helsinki. 8 mm punch biopsies were excised and embedded in a fibrin-based matrix in transwells and a silicone ring was firmly attached to the surface covering the outer edge of the skin biopsy to prevent lateral diffusion of topically applied formulations. Skin models were cultured in a defined hydrocortisone- and serum-free medium provided by Genoskin.
LEO 134310 and reference glucocorticoids were dissolved in propylene carbonate and tested at 4 concentrations in five- or tenfold titrations. Compounds were applied in duplicates or triplicates on the skin surface (0.5 cm^2) in a volume of 2 µL and incubated for 24 h. Vehicle and untreated samples were included for basal level of expression.
RNA was extracted and qPCR was performed using TaqMan gene expression assays (FKBP5-Hs01561006_m1, TSC22D3 (GILZ)-Hs00608272_m1, TXNIP-Hs01006900_g1, ACTB-Hs99999903_m1, PPIA-Hs99999904_m1, GAPDH-Hs99999905_m1). Gene expression of FKBP5,TSC22D3 (GILZ), and TXNIP was normalized to the geometric mean of the reference genes ACTB, PPIA and GAPDH.
Doses were expressed as compound (API) concentrations (µg/mL) in the applied formulations. Relative upregulation of FKBP5 was estimated as − fold to vehicle treated control. Effective doses (Emax and ED50) were determined from a sigmoid Emax model in Phoenix64 version 8.0, Pharsight, Certara. Mean values and standard deviation of Emax and ED50 were calculated by weighing individual experiments based on the intra- and inter-experiment variability.

Data set [2] deals with TPA-induced skin inflammation. Kind of data set: TPA-induced skin inflammation in mice, efficacy. Type of data set: in vivo. Particulars: TPA mouse model; for Ear biopsy weight ID50 (API concentration in formulation) / Ear biopsy weight Imax: topical, CV (%) in brackets. As to the method: (§2) Female Balb/c mice of 7 to 8 weeks old were obtained from Charles River, Germany and acclimatized for at least 1 week. Skin inflammation was induced by repeated topical application of TPA (20 μL of 0.01% TPA in acetone; 10 μL to each side of ear) on days 1, 3, 5, 8 and 10.
(§3) Treatments were performed by topical application of either vehicle (90% acetone, 10% transcutol), Treatments were applied twice daily on days 8, 9, 10, and once on day 11 (20–10 μL to each side of ear) with at least 5 h between the first and second treatment. TPA challenge on days 8 and 10 was performed at least 1 h after the first treatment. On day 11, animals were sacrificed 2 h after the last dosing. Blood was sampled by cardiac puncture from animals anaesthetized with isoflurane. Thereafter, ear biopsies were taken with a biopsy punch (8 mm diameter), weighed and stored at – 80 °C. Plasma osteocalcin levels were analyzed by EIA (rat-MID, IDS, UK). Effective inhibitory doses (ID50) were determined from a sigmoid I(max) model in Phoenix64, Pharsight, Certara. Therapeutic Index (TI) was calculated either as ID50 for spleen weight reduction or ID50 for blood osteocalcin concentrations, divided by ID50 for ear weight reduction.
RNA was extracted from biopsies and qPCR was performed using TaqMan gene expression assays (Fkbp5-Mm00487406_m1, Tsc22d3 (Gilz)-Mm00726417_s1, Actb-Mm00607939_s1, Pgk1-Mm00435617_m1, Tbp-Mm00446971_m1, Ubc-Mm02525934_g1). Gene expression of Fkbp5 and Tsc22d3 (Gilz) was normalized to the geometric mean of the reference genes Actb, Pgk1, Tbp and Ubc.

The subject of data set [3] is spleen weight, plasma osteocalcin, body weight. Kind of data set: TPA-induced skin inflammation in mice, systemic side effects. Type of data set: in vivo, mouse. Particulars: for Reduction of body weight gain, spleen weight, and plasma osteocalcin levels: indicating systemic exposure; for Osteocalcin concentration ID50 / Osteocalcin concentration Imax: plasma; for Spleen weight ID50 / Spleen weight Imax: topical; for Suppression of osteocalcin levels at efficacious doses on skin inflammation: mouse TPA model. As to the method: as §2, §3

Data set [4] relates to FKBP5 mRNA (GR target engagement). Briefly: Minipig skin FKBP5 gene expression after 4 weeks topical treatment. Type of data set: in vivo. Particulars: minipigs, LEO 134310 2%, CP 0.05%, BMV 0.1%. Here is the method: Each animal was treated for 6 h daily over 28 days with 25 µL of the following topical formulations on an application area of 2.5 cm × 2.5 cm: Vehicle (transcutol:acetone (1:9) with 10% hydroxy-propyl-cellulose); Dermovate cream (CP 0.05%), CP 0.05% in vehicle; Betnovate cream (BMV 0.1%); BMV 0.1% in vehicle; LEO 134310 2% in vehicle. One test field on each animal remained untreated.
RNA was extracted from the biopsies and qPCR was performed using customized TaqMan gene expression assays for FKBP5 and TBP (reference gene).

A short description of data set [5]: Hepatocyte stability (human). In kind it is in vitro ADME. Particulars: predicted hepatic clearance, well stirred model. Here is the method: Compounds (1.0 µM) were incubated in duplicates with rat, dog, minipig or human hepatocytes (1.0 million cells/mL) in phosphate buffer, in 96-well plates for 120 min (37 °C). Reactions were stopped by addition of cold acetonitrile, at 0, 10, 30, 60, and 120 min, and dispensed into cold acetonitrile to stop the reactions. Plates were centrifuged for 30 min and samples were analysed using liquid chromatography coupled to a time-of-flight mass spectrometer. Compound depletion over time was used to estimate the elimination rate constant, from which the apparent intrinsic clearance (CLapp), and half-life (t½), were calculated.

The nature of data set [6]: Predicted clearance and half-life in man by allometric scaling of clearance in dogs. On the set-up: species or system human. The source says: To evaluate allometric scaling, actual clearance in dog and man were extracted from the literature for 6 ester drugs[27]–[38].
Data set [7] can be described thus: Compound concentration in dermis, human skin explants. Type of data set: in vitro ADME. Particulars: 24 h, propylene carbonate. Here is the method: as §1, with “Skin models were cultured in a defined hydrocortisone- and serum-free medium provided by Genoskin.” left out
The concentrations of the compounds in dermis were determined from skin biopsies from the human skin explants. […] After homogenization, the samples were diluted, centrifuged and precipitated with acetonitrile containing internal standard (IS), and the compounds were thereafter quantified by means of liquid chromatography-tandem mass spectrometry (LC-MS/MS) using an AB Sciex 5500 or 6500 QTRAP. Calibration curves were prepared by spiking the analytes in blank homogenate, and a generic IS were used in quantification. The dermis micro molar concentrations were calculated assuming 1 gram of skin tissue equal to 1 mL.

[8] abbreviates: TPA mouse model, CV (%) in brackets.

Each structure is given as a SMILES string.

On to `CCCCC(=O)O[C@]1(C(=O)CO)[C@@H](C)C[C@H]2[C@@H]3CCC4=CC(=O)C=C[C@]4(C)[C@@]3(F)[C@@H](O)C[C@@]21C` [BMV, Betamethasone Valerate], for which, in data set [1], the “GILZ Emax” value was 6.1 ± 3.7 fold to control and the “GILZ Relative ED50” value worked out at 5.1 ± 27 µg/mL. Also, in data set [2], the “Ear biopsy weight ID50 (API concentration in formulation)” value (shortened to “Ear biopsy weight ID50”) is recorded as 5.1 (73) µg/mL and the “Ear biopsy weight Imax” value is given as 69 (17) %. Moreover, in data set [3] (TPA mouse model), the “Therapeutic index (Osteocalcin ID50/Ear ID50)” value worked out at 39; the “Therapeutic index (Spleen ID50/Ear ID50)” value is listed as 21; the “Reduction of body weight gain, spleen weight, and plasma osteocalcin levels” value (from here on “Reduction … and plasma osteocalcin levels”) is given as “dose-dependent reduction”. Also, in data set [3] (setting [8]), the “Osteocalcin concentration ID50” value was 200 (24) µg/mL, the “Osteocalcin concentration Imax” value is listed as 74 (10) %, the “Spleen weight ID50” value is 110 (25) µg/mL and the “Spleen weight Imax” value is on record as 58 (9) %. Moreover, the “Suppression of osteocalcin levels at efficacious doses on skin inflammation” value (from here on “Suppression of osteocalcin levels”) in data set [3] is “did”.

Regarding `CCC(=O)O[C@]1(C(=O)CCl)[C@@H](C)C[C@H]2[C@@H]3CCC4=CC(=O)C=C[C@]4(C)[C@@]3(F)[C@@H](O)C[C@@]21C` [CP, Clobetasol Propionate], in data set [1], the “GILZ Emax” value is 7.7 ± 2.5^NS fold to control and the “GILZ Relative ED50” value is on record as 1.1 ± 0.25^NS µg/mL. For the same compound, the “FKBP5 gene expression induced in skin” value in data set [4] was “higher levels of FKBP5 gene expression”. In addition, in data set [2], the “Ear biopsy weight ID50” value is on record as 1.5 (69) µg/mL and the “Ear biopsy weight Imax” value is recorded as 67 (14) %. Also, in data set [3] (TPA mouse model), the “Therapeutic index (Osteocalcin ID50/Ear ID50)” value is listed as 43; the “Therapeutic index (Spleen ID50/Ear ID50)” value is recorded as 17; the “Reduction … and plasma osteocalcin levels” value is listed as “dose-dependent reduction”. In data set [3] (setting [8]), the “Osteocalcin concentration ID50” value is 64 (17) µg/mL, the “Osteocalcin concentration Imax” value is listed as 88 (4) %, the “Spleen weight ID50” value is given as 26 (27) µg/mL and the “Spleen weight Imax” value was 70 (8) %. Besides, in data set [3], the “Suppression of osteocalcin levels” value is on record as “did”.

Consider `C[C@H](NC(=O)[C@H]1CCCO1)[C@H](Oc1ccc(C(=O)O[C@H]2CCCN(C(=O)[C@H]3COC(=O)C3)C2)cc1)c1ccc(C2CC2)cc1` [LEO 134310], for which the “In vitro (hepatocytes) CLH” value in data set [5] is > 18 (n = 1) mL/min/kg. Further, the “Predicted clearance in man” value in data set [6] (allometric scaling of clearance in dogs, scaling factor 0.75) is reported as 300 mL/min/kg. Further, the “Predicted half-life in man” value in data set [6] (corresponding to predicted clearance) was under 5 min. In addition, in data set [7], the “Higher dose needed to achieve similar dermis concentrations compared to BMV” value is 3 fold and the “Higher dose needed to achieve similar dermis concentrations compared to CP” value came out at 7 fold. Besides, in data set [1], the “GILZ Emax” value is 6.7 ± 2.7^NS fold to control and the “GILZ Relative ED50” value came to 270 ± 110 µg/mL. In data set [2], the “Less potent than BMV, reduction in ear biopsy weight” value is about 100 fold; the “Less potent than CP, reduction in ear biopsy weight” value is “approximately 300 fold”; the “Ear biopsy weight ID50” value was 500 (250) µg/mL; the “Ear biopsy weight Imax” value is 64 (39) %. Besides, in data set [3] (TPA mouse model), the “Higher therapeutic index (osteocalcin ID50 to ear weight ID50) compared to CP and BMV” value is over 5 fold; the “Higher therapeutic index (spleen weight ID50 to ear weight ID50) compared to CP and BMV” value is on record as 2 fold; the “Therapeutic index (Osteocalcin ID50/Ear ID50)” value was over 200; the “Therapeutic index (Spleen ID50/Ear ID50)” value stood at 49. Moreover, the “Reduction … and plasma osteocalcin levels” value in data set [3] (TPA mouse model) is reported as “not—or only to a lesser extent”. Further, in data set [3] (setting [8]), the “Spleen weight Imax” value is 42 (56) %. In addition, the “Spleen weight ID50 (extrapolated)” value in data set [3] (TPA mouse model, ID50 could not be determined, value extrapolated, CV (%) in brackets) is on record as 25,000 (110) µg/mL. In data set [3], the “Suppression of osteocalcin levels” value was “did not suppress osteocalcin levels”.
